Tested on: NCI-H1876 complex spheroid growth, % test/control
Experiment: Anticancer human tumor NCI-H1876 cell line growth inhibition [Asc];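 further: compound exposure lasted 7 days starting three days after seeding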;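 on viability, T/C: 100% = DMSO vehicle control wells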
Conditions: for viability, T/C: stronger effect = lower value
How it was run: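 Spheroid model: tumor line + HUVEC + hMSC. Single agents and combinations; top conc. at/near clinical Cmax (10 microM if undetermined), half-log dilutions. DMSO stocks at 800-fold test concentration.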

[1] = curve of first compound, second compound 0.0316 µM
[2] = curve of first compound, second compound 0.1 µM
[3] = curve of first compound, second compound 0.316 µM
[4] = curve of first compound, second compound 1 µM

In the case of Cc1nc(N2CCC3(CC2)COC(C)C3N)c(CO)nc1Sc1ccnc(N)c1Cl (stereo unspecified) + CNC(C)C(=O)NC1CN(S(=O)(=O)c2cccc(S(=O)(=O)N3CCC4CCC(C(=O)NC(c5ccccc5)c5ccccc5)N4C(=O)C(NC(=O)C(C)NC)C3)c2)CCC2CCC(C(=O)NC(c3ccccc3)c3ccccc3)N2C1=O, the IC50 (curve of first compound, second compound 0.00316 µM) is reported as > 3000 nM, the IC50 (curve of first compound, second compound 0.01 µM) is reported as > 3000 nM and the IC50 [1] is reported as > 3000 nM. For the same compound, the IC50 [2] was > 3000 nM, the IC50 [3] was > 3000 nM and the IC50 [4] was > 3000 nM. The viability, T/C (second compound 0.00316 µM, first compound 0.00949 µM) was 100%, the viability, T/C (second compound 0.00316 µM, first compound 0.03 µM) was 92.7% and the viability, T/C (second compound 0.00316 µM, first compound 0.0949 µM) was 91.2%. It also gave a viability, T/C (second compound 0.00316 µM, first compound 0.3 µM) of 80.7%, a viability, T/C (second compound 0.00316 µM, first compound 0.949 µM) of 92.6% and a viability, T/C (second compound 0.00316 µM, first compound 3 µM) of 79.8%. The viability, T/C (second compound 0.01 µM, first compound 0.00949 µM) was 91.7%, the viability, T/C (second compound 0.01 µM, first compound 0.03 µM) was 91.9% and the viability, T/C (second compound 0.01 µM, first compound 0.0949 µM) was 92.7%. The viability, T/C (second compound 0.01 µM, first compound 0.3 µM) was 81.2%, the viability, T/C (second compound 0.01 µM, first compound 0.949 µM) was 85.7% and the viability, T/C (second compound 0.01 µM, first compound 3 µM) was 92.1%. For the same compound, the viability, T/C (second compound 0.0316 µM, first compound 0.00949 µM) was 94.4%, the viability, T/C (second compound 0.0316 µM, first compound 0.03 µM) was 86.1% and the viability, T/C (second compound 0.0316 µM, first compound 0.0949 µM) was 98.8%. For the same compound, the viability, T/C (second compound 0.0316 µM, first compound 0.3 µM) was 84.8%, the viability, T/C (second compound 0.0316 µM, first compound 0.949 µM) was 87.6% and the viability, T/C (second compound 0.0316 µM, first compound 3 µM) was 89%. For the same compound, the viability, T/C (second compound 0.1 µM, first compound 0.00949 µM) was 93.9%, the viability, T/C (second compound 0.1 µM, first compound 0.03 µM) was 88.4% and the viability, T/C (second compound 0.1 µM, first compound 0.0949 µM) was 82.9%. For the same compound, the viability, T/C (second compound 0.1 µM, first compound 0.3 µM) was 86.5%, the viability, T/C (second compound 0.1 µM, first compound 0.949 µM) was 86.4% and the viability, T/C (second compound 0.1 µM, first compound 3 µM) was 84.3%. The viability, T/C (second compound 0.316 µM, first compound 0.00949 µM) was 94%, the viability, T/C (second compound 0.316 µM, first compound 0.03 µM) was 93.8% and the viability, T/C (second compound 0.316 µM, first compound 0.0949 µM) was 87.9%. For the same compound, the viability, T/C (second compound 0.316 µM, first compound 0.3 µM) was 92.7%, the viability, T/C (second compound 0.316 µM, first compound 0.949 µM) was 85.9% and the viability, T/C (second compound 0.316 µM, first compound 3 µM) was 77.2%. The viability, T/C (second compound 1 µM, first compound 0.00949 µM) was 94%, the viability, T/C (second compound 1 µM, first compound 0.03 µM) was 91.8% and the viability, T/C (second compound 1 µM, first compound 0.0949 µM) was 94.4%. The viability, T/C (second compound 1 µM, first compound 0.3 µM) was 90.5%, the viability, T/C (second compound 1 µM, first compound 0.949 µM) was 84.5% and the viability, T/C (second compound 1 µM, first compound 3 µM) was 74.8%.

In the case of NC1CCC(NC2CC2c2ccccc2)CC1 (stereo unspecified) + Cc1c(S(C)(=O)=O)c(-c2cc(F)cc(N3CCN(c4ccc(NS(=O)(=O)c5ccc(NC(CCN6CCC(C(=O)OCCCP(=O)(O)O)CC6)CSc6ccccc6)c(S(=O)(=O)C(F)(F)F)c5)cc4)CC3)c2)c(-c2ccc(Cl)cc2)n1C(C)C, the IC50 [1] is reported as > 100 nM, the IC50 [2] is reported as > 100 nM and the IC50 [3] is reported as > 100 nM. The IC50 [4] was > 100 nM, the IC50 (curve of first compound, second compound 3.16 µM) was > 100 nM and the IC50 (curve of first compound, second compound 10 µM) was > 100 nM. The viability, T/C (second compound 0.0316 µM, first compound 0.000316 µM) was 111%, the viability, T/C (second compound 0.0316 µM, first compound 0.001 µM) was 101% and the viability, T/C (second compound 0.0316 µM, first compound 0.00316 µM) was 99.3%. For the same compound, the viability, T/C (second compound 0.0316 µM, first compound 0.01 µM) was 106%, the viability, T/C (second compound 0.0316 µM, first compound 0.0316 µM) was 109% and the viability, T/C (second compound 0.0316 µM, first compound 0.1 µM) was 119%. For the same compound, the viability, T/C (second compound 0.1 µM, first compound 0.000316 µM) was 114%, the viability, T/C (second compound 0.1 µM, first compound 0.001 µM) was 103% and the viability, T/C (second compound 0.1 µM, first compound 0.00316 µM) was 105%. For the same compound, the viability, T/C (second compound 0.1 µM, first compound 0.01 µM) was 110%, the viability, T/C (second compound 0.1 µM, first compound 0.0316 µM) was 103% and the viability, T/C (second compound 0.1 µM, first compound 0.1 µM) was 112%. The viability, T/C (second compound 0.316 µM, first compound 0.000316 µM) was 99.6%, the viability, T/C (second compound 0.316 µM, first compound 0.001 µM) was 103% and the viability, T/C (second compound 0.316 µM, first compound 0.00316 µM) was 113%. For the same compound, the viability, T/C (second compound 0.316 µM, first compound 0.01 µM) was 101%, the viability, T/C (second compound 0.316 µM, first compound 0.0316 µM) was 120% and the viability, T/C (second compound 0.316 µM, first compound 0.1 µM) was 106%. The viability, T/C (second compound 1 µM, first compound 0.000316 µM) was 97.5%, the viability, T/C (second compound 1 µM, first compound 0.001 µM) was 97.7% and the viability, T/C (second compound 1 µM, first compound 0.00316 µM) was 93.1%. It also gave a viability, T/C (second compound 1 µM, first compound 0.01 µM) of 93.9%, a viability, T/C (second compound 1 µM, first compound 0.0316 µM) of 109% and a viability, T/C (second compound 1 µM, first compound 0.1 µM) of 114%. It also gave a viability, T/C (second compound 3.16 µM, first compound 0.000316 µM) of 103%, a viability, T/C (second compound 3.16 µM, first compound 0.001 µM) of 112% and a viability, T/C (second compound 3.16 µM, first compound 0.00316 µM) of 98.2%. The viability, T/C (second compound 3.16 µM, first compound 0.01 µM) was 104%, the viability, T/C (second compound 3.16 µM, first compound 0.0316 µM) was 110% and the viability, T/C (second compound 3.16 µM, first compound 0.1 µM) was 98.9%. It also gave a viability, T/C (second compound 10 µM, first compound 0.000316 µM) of 118%, a viability, T/C (second compound 10 µM, first compound 0.001 µM) of 105% and a viability, T/C (second compound 10 µM, first compound 0.00316 µM) of 101%. It also gave a viability, T/C (second compound 10 µM, first compound 0.01 µM) of 103%, a viability, T/C (second compound 10 µM, first compound 0.0316 µM) of 111% and a viability, T/C (second compound 10 µM, first compound 0.1 µM) of 108%.

CNC(C)C(=O)NC1CN(S(=O)(=O)c2cccc(S(=O)(=O)N3CCC4CCC(C(=O)NC(c5ccccc5)c5ccccc5)N4C(=O)C(NC(=O)C(C)NC)C3)c2)CCC2CCC(C(=O)NC(c3ccccc3)c3ccccc3)N2C1=O (stereo unspecified) was tested, and the viability, T/C (compound 0.01 µM) was 103% [middle of 9 runs], the viability, T/C (compound 0.0316 µM) was 105% [middle of 9 runs] and the viability, T/C (compound 0.1 µM) was 103% [middle of 9 runs]. For the same compound, the viability, T/C (compound 0.316 µM) was 101% [middle of 9 runs], the viability, T/C (compound 1 µM) was 93.7% [middle of 9 runs] and the IC50 (compound alone, run of 11/15/2022) was > 1000 nM. The IC50 (curve of compound) was > 1000 nM.
